The record followed here is US11833185B2, “Anti-neurodegenerative therapeutic, method of manufacture, and use” (UNIVERSITY OF KENTUCKY RESEARCH FOUNDATION, priority 2017, dated 2023).

Data set [1] is described as follows: Plasma levels by LC-MS/MS after subcutaneous administration. The note with it: 100 mg/kg s.c. in saline. The format is in vivo, rat.
Data set [2] relates to MN9D neuronal cells. As to the kind of experiment: LIVE/DEAD and JC-1 assays for toxicity and loss of mitochondrial potentials. The conditions noted are these: 100 nM, 1 and 3 hours post treatment. The protocol: (§1) Testing involved permutations of size and diversifying amino acid sequence at each residue position. Sequence design began with Proline-Proline-Glutamate-Alanine-Proline-Alanine-Glutamate-Aspartate-Arginine-Serine-Leucine-NH2. […] These properties were tested using the dopaminergic MN9D neuronal cell line. Each candidate peptide sequence was dissolved in citrate buffer and added to MN9D cells (Choi et al., 1992) that were cultured in Dulbecco's Modified Eagle's Medium [DMEM (containing pyridoxol HCl); Sigma, St. Louis, MO] supplemented with 10% Fetal Bovine serum (HyClone, Logan, UT), 50 U/ml penicillin and streptomycin to a final 100 nM concentration. Using LIVE/DEAD and JC-1 assays in MN9D neuronal cells, individual library sequences were measured for toxicity and loss of mitochondrial potentials at 1 and 3 hours post treatment. […] The remaining sequences were then tested for their ability to provide protection against neurotoxins rotenone, 1-methyl-4-phenylpyridinium (MPP+), and trichloromethyl-1,2,3,4-tetrahydro-β-carboline (TaClo).

Data set [3] relates to MN9D neuronal cells. The data set can be described thus: Protection of mitochondrial potentials against rotenone, MPP+ and TaClo-induced cytotoxicity. The format is cell-based. The conditions noted are these: 100 nM pretreatment, 1, 3, 12, 24 hours. On the procedure: as §1
The conditions of data set [4]: rat, in vivo, sc, 100 mg/kg.
For data set [5] the following is noted: rat, in vivo, sc.

As a reminder, the half-life is how long it takes for the measured level to halve. A higher half-life goes with slow decline.

Where a SMILES comes first, the peptide text is derived from it.

Take `C[C@H](NC(=O)[C@@H]1CCCN1C(=O)[C@H](C)NC(=O)[C@@H](N)CCC(=O)O)C(=O)N[C@@H](CCC(=O)O)C(N)=O` [AV2157, Glutamate-Alanine-Proline-Alanine-Glutamate-NH2] (H-EAPAE-NH2; N-terminus assumed): the “total lifetime in plasma” value in data set [1] was approximately 120 min. In addition, in data set [1] (rat, plasma, sc, read-out: maximum plasma level), the Cmax turned out to be 1250 ng/mL. For the same compound, the Tmax in data set [1] (rat, plasma, sc, read-out: time of maximum plasma level post administration (converted)) was 20 min. The toxicity entry in data set [2] is on record as “low toxicity”. For the same compound, the “protection against neurotoxins (rotenone, MPP+, TaClo)” value in data set [3] is “protection against neurotoxin exposure at all time points measured”. The compound also registered a half-life in data set [4] of 50 to 60 min. Moreover, in data set [5], the “improved CNS bioavailability compared to AV6403” value is “over 10 times”.
